Molecules are shown by their SMILES. Calls of active or inactive are those of the source. No cut-off for these calls is given here.

In data set [1] the target is T1, beta-catenin-B-cell lymphoma 9 protein complex (Homo sapiens, UniProt P35222).
T1 sequence (P35222 whole entry): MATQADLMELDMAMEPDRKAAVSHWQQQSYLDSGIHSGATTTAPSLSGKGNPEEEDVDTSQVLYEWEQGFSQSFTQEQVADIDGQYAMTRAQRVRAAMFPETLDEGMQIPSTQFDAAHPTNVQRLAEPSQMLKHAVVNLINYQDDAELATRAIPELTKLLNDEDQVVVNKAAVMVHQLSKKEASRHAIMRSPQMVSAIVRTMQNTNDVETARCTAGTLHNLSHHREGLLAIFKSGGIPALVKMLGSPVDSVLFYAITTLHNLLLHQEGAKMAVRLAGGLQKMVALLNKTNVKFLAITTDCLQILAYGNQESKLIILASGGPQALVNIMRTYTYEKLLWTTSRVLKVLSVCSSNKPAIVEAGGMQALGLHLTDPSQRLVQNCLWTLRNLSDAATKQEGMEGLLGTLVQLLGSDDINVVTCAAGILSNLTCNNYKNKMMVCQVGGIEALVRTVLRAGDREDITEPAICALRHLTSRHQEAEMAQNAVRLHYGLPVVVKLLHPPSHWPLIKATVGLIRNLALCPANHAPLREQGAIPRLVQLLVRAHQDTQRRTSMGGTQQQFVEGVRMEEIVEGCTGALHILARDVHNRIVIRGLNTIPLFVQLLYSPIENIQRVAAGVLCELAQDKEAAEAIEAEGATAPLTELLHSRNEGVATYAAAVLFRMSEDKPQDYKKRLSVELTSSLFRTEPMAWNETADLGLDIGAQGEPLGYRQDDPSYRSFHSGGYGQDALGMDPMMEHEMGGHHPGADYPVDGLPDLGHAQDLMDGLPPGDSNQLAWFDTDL
T1 sequence (O00512 whole entry): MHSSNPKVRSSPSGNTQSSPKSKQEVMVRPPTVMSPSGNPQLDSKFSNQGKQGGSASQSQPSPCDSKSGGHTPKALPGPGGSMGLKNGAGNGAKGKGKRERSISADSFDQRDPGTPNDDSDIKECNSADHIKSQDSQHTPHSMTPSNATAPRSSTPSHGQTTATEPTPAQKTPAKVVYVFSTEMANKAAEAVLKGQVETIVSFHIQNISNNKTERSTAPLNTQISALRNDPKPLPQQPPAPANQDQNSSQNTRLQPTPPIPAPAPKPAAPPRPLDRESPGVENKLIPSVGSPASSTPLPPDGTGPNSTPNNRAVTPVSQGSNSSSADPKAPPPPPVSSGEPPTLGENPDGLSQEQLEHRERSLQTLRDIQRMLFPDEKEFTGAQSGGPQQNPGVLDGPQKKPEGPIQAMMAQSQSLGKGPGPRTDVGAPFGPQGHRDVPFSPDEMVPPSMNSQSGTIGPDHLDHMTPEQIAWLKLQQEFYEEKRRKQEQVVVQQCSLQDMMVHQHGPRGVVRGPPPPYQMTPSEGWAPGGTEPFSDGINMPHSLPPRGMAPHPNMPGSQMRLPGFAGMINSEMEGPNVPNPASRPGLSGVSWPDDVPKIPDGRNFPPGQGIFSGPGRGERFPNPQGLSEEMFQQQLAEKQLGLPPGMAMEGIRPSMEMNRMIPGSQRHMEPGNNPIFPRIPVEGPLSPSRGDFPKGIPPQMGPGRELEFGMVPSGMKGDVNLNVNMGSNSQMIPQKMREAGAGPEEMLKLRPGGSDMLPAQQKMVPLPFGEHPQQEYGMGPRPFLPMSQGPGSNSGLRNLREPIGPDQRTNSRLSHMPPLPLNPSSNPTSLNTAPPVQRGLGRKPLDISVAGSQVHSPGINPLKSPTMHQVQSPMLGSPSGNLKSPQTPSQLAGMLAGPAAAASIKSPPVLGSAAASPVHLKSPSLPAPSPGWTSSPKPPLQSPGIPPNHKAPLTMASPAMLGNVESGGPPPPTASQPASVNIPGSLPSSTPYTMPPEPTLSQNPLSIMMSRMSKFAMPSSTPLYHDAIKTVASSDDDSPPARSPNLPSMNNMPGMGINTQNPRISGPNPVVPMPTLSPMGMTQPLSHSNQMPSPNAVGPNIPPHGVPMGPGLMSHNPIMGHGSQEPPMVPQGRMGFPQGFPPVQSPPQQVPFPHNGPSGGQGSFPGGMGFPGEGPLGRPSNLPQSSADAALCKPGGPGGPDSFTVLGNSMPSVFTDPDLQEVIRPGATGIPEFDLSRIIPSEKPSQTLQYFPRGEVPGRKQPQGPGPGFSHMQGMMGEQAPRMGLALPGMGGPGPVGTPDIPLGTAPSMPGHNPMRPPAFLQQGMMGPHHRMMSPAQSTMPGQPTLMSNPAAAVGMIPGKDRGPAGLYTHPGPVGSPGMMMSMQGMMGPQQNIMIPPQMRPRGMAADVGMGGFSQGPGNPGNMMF
Put plainly: Inhibition of beta-catenin/BCL9 protein-protein interaction in Wnt-independent human A549 cells assessed as reduction in Axin2 expression level by qRT-PCR assay. The class given is cell-based.

The nature of data set [2]: Microsomal stability in mouse liver microsomes assessed as intrinsic clearance at […] and measured upto 60 mins by LC-MS/MS analysis. It is filed as ADME, Microsome. The conditions noted are these: read-out: CLH. A general note: Liver microsomes are a subcellular fraction often used to study metabolism.
For the next data set, the system named is HCT-116. The data set can be described thus: Induction of apoptosis in Wnt-dependent human HCT-116 cells assessed as early apoptotic cells at 20 uM incubated for 24 hrs by Annexin V-Alexa Fluor 647/PI staining based flow cytomtery (Rvb=14.3%). The class given is functional.
Data set [3] is described as follows: Toxicity in BALB/c mouse xenografted with mouse CT26 cells assessed as pathological changes in bone marrow at 30 mg/kg, ip QD by hematoxylin and eosin staining based microscopic analysis. It is filed as organism-based. The conditions noted are these: in vivo.
A short description of data set [4]: Toxicity in BALB/c mouse xenografted with mouse CT26 cells assessed as pathological changes in liver at 30 mg/kg, ip QD in presence of anti-PD-1 antibody cotreatment at 10 mg/kg,ip BIW by hematoxylin and eosin staining based microscopic analysis. The class given is organism-based. The conditions noted are these: in vivo.
A short description of data set [5]: Toxicity in BALB/c mouse xenografted with mouse CT26 cells assessed as pathological changes in spleen at 30 mg/kg, ip QD in presence of anti-PD-1 antibody cotreatment at 10 mg/kg,ip BIW by hematoxylin and eosin staining based microscopic analysis. The settings on record: in vivo. It is filed as organism-based.
Data set [6] in a line: Toxicity in BALB/c mouse xenografted with mouse CT26 cells assessed as pathological changes in bone marrow at 30 mg/kg, ip QD in presence of anti-PD-1 antibody cotreatment at 10 mg/kg,ip BIW by hematoxylin and eosin staining based microscopic analysis. The class given is organism-based. The settings on record: in vivo.
A short description of data set [7]: Cmax in Sprague-Dawley rat at 21 mg/kg, ip and measured upto 24 hrs by LC-MS analysis. It is filed as ADME, organism-based. More on the design: dose 21 mg/kg, time < 24 hrs, route ip. The conditions noted are these: in vivo.
Another data set deals with CT26. Put plainly: Antitumor activity in mouse CT26 cells xenografted in BALB/c mouse assessed as increase in IFNgamma-positive CD8+ T cell infiltration into tumor at 30 mg/kg, ip QD by flow cytometry. It is filed as functional, organism-based. In general terms: A flow cytometer gives signals particle by particle.

Broadly, the IC50 is the concentration that gives 50% inhibition. As for `O=C1[C@H](Cc2ccc(O)cc2)N2C(=O)CCN(C(=O)NCc3ccccc3)[C@H]2CN1Cc1cccc2ccccc12`, the IC50 in data set [1] was determined as 24.7 µM.
The term Cmax denotes the highest concentration seen after dosing. Turning to `CC(C)c1ccc(-c2cccc(S(=O)(=O)N3CCCC(c4cccc(OC(C)(C)C(=O)NS(=O)(=O)c5ccc(C(F)(F)F)cc5)c4)C3)c2)cc1` (centres undefined), the microsomal CLint in data set [2] worked out at 66.2 µL/min/mg. The Activity is 26.4% in the data set on HCT-116; “Non-Toxic” in [3]; “Non-Toxic” in data set [4]; “Non-Toxic” in data set [5]; “Non-Toxic” in data set [6]. Further, in [7], the Cmax stood at 6960 ng/mL. In addition, the outcome in the data set on CT26 was Active.
